Laboratory results reported in article PMC6010131, “Antileishmanial activity of sulphonamide nanoemulsions targeting the β-carbonic anhydrase from Leishmania species” (Journal of Enzyme Inhibition and Medicinal Chemistry, 2018).
Values after ≈ are worked out from the molar mass of the structure shown. Marks after values point to notes of the source that are not given here. Each block holds one compound with its values, some of them ahead of it.

Key:
[1] = system: L. amazonensis IFLA/BR/1967/PH8 promastigotes; assay: Antileishmanial microdilution assay (resazurin), promastigotes; format: cell-based, Leishmania amazonensis
Description: (§1) Leishmania (infantum MHOM/BR/1974/PP75 and L. amazonensis IFLA/BR/1967/PH8 were donated by the Leishmania Type Culture Collection (LTCC) of Oswaldo Cruz Institute/Fiocruz (Rio de Janeiro, Brazil). […] The antileishmanial activity of the sulphonamide NEs was evaluated by the microdilution technique. […] L. amazonensis and L. infantum promastigote forms were harvest at late log phase of growth (96 h), washed twice with PBS and resuspended in fresh culture medium to a final concentration of 5 × 10^6 parasites/ml. […] The minimal inhibitory concentration (MIC) was determined as the lowest concentration capable of inhibiting in vitro growth of the parasites. […] The selective index (SI) for promastigote forms of L. amazonensis and L. infantum was calculated by the ratio between the CC50 for RAW 264.7 macrophages and the IC50 for the parasites.

[2] = system: L. infantum MHOM/BR/1974/PP75 promastigotes; assay: as above; format: cell-based, Leishmania infantum
Description: as §1

[3] = Cytotoxic assay (MTT); format: cell-based; settings: mouse, RAW 264.7 macrophages
Description: RAW 264.7 macrophages were obtained from the National Institute of Metrology, Quality and Technology (Inmetro, Rio de Janeiro, Brazil) and maintained in DMEM medium supplemented with 10% FBS at 37 °C in a 5% controlled CO2 atmosphere. Cell maintenance was performed every 48–72 h, time necessary for cells to achieve confluent monolayers.
Sulphonamide NEs cytotoxicity was performed using tetrazolium dye MTT colorimetric assay. RAW 264.7 macrophages were harvest after confluent monolayer achievement. The cells were washed twice with PBS and a cellular suspension of 10^6 cells/ml was prepared in fresh DMEM culture medium. Aliquots of 100 µl of the cellular suspension were placed into polystyrene 96-well plates, and then incubated at 37 °C in a 5% CO2 atmosphere for 6 h to allow for adherence of macrophages. After this period, the adherent cells were subjected to treatment with several concentrations of the sulphonamide NEs (1–128 µM), and then incubated for additional 48 h. […] Macrophage viability was determined after formazan crystals solubilisation with DMSO followed by the absorbance measurement at 570 nm using a SpectraMax M5 spectrophotometer (Molecular Devices, Los Angeles, CA). The 50% cytotoxic concentrations were calculated by regression analysis using Microsoft Excel 2013 software.

[4] = Haemolytic assay; format: cell-based, Human; settings: human, human erythrocytes (suspension in PBS), read-out: Haemolysis (%)
Description: (§2) Haemolytic activity was evaluated as described previously by Ishnava and Shah with a slight modification. Human erythrocytes from healthy individuals were collected in vacuum tubes containing EDTA as anti-coagulant. The erythrocytes were harvested by centrifugation for 10 m at 2500 rpm at 20 °C, and washed three times in PBS. To the pellet, PBS was added to yield a 10% (v/v) erythrocytes/PBS suspension. The 10% suspension was then diluted 1:10 in PBS. Aliquots of 100 µl of erythrocytes suspension was added, in triplicate, to 100 µl of a two-fold dilution series of sulphonamides NEs and amphotericin B (at concentrations of 128, 64, 32, 16, 8, 4, 2, and 1 µM, respectively, in the same buffer) in microtubes. Negative and positive controls were performed by replacing drug dilution with PBS or with 200 µl of […] for the total haemolysis, respectively. The tubes were incubated for 1 h at 37 °C and then centrifuged for 10 min at 2000 rpm at 20 °C. From the supernatant fluid, 150 µl was transferred to a flat-bottomed microtiter plate, and the absorbance was measured spectrophotometrically at 540 nm. Five concentrations are required for HC50 calculation. The following formula was used to find out the percentage of haemolytic activity: [A540 treated sample − A540 of buffer)/(A540 of Triton X-100 − A540 of buffer)] × 100.

[5] = system: Human erythrocytes; assay: Haemolytic assay; format: cell-based; settings: human erythrocytes, 1 h, 37 °C
Description: as §2

[6] = system: L. donovani; parameters: method as in PMID 25825339; settings: against L. donovani; cited from earlier work
[7] = parameters: method as in PMID 25825339; settings: cited from earlier work
[8] = Dissolution of sulphonamides in clove oil; format: physicochemical; settings: concentration of 5 mg/ml
Description: The oil-in-water (O/W) NEs were prepared by high-energy method using an ultrasound processor (Hielscher model UP100H, Hielscher GmbH, Berlin, Germany), according to the method descripted by Senna et al.[31]. Oil phase was prepared by sulphonamides dissolution in the clove oil. An amount of 5 mg of drug was weighted in a microtube and 1 ml of clove oil was added. The tube was agitated for 1 min for obtaining of the drug solution (5 mg/ml). Aqueous phase was prepared by adding 1 g of Pluronic F127® in 8 g of water. Then 1 ml of oil phase (drug dissolved in clove oil) was added to 9 ml of aqueous phase (Pluronic F127 in water) under constant ultrasound homogenisation (amplitude 80%, continuous cycle no. 1) during 5 min in an ice bath at 5 °C to prevent heating of the dispersion. A transparent NE was obtained at a concentration of 500 µg/ml.
The NEs were produced with 10% of oil phase. NEs were prepared also without the drug in order to evaluate the stability, droplet size and PDI. […] Phase separation and precipitation of the drug were not observed, and the NE was considered stable in the concentration of up to 500 µg/ml.

[9] = Leishmania amazonensis, L. amazonensis promastigotes, 120 h
[10] = Leishmania infantum, L. infantum promastigotes, 120 h

Compound: C[C@@H]1[C@H](O)[C@@H](C)/C=C/C=C/C=C/C=C/C=C/C=C/C=C/[C@H](O[C@@H]2O[C@H](C)[C@@H](O)[C@H](N)[C@@H]2O)C[C@@H]2O[C@](O)(C[C@@H](O)C[C@@H](O)[C@H](O)CC[C@@H](O)C[C@@H](O)CC(=O)O[C@H]1C)C[C@H](O)[C@H]2C(=O)O [AMP, amphotericin B]
- IS50 (selectivity index = CC50/IC50) ([1]; CC50 RAW 264.7 / IC50 L. amazonensis): 1.78 ± 0.01^b
- IC50 [1, 9]: 610 ± 10 nM
- IC90 [1, 9]: 1230 ± 230 nM
- MIC ([1]; Leishmania amazonensis, L. amazonensis promastigotes, 120 h, 26 °C, read-out: MIC (minimum inhibitory concentration)): 4 µM (≈ 3.7 µg/mL)
- IS50 (selectivity index = CC50/IC50) ([2]; CC50 RAW 264.7 / IC50 L. infantum): 1.59 ± 0.01^d
- IC50 [2, 10]: 670 ± 100 nM
- IC90 [2, 10]: 1010 ± 30 nM
- MIC ([2]; Leishmania infantum, L. infantum promastigotes, 120 h, 26 °C, read-out: MIC (minimum inhibitory concentration)): 4 µM (≈ 3.7 µg/mL)
- CC50 at 48 h [3]: 1070 ± 1490 nM
- hemolysis at 1 h, 2 µM ([4]; 2 µM): 1.18 ± 0.31%
- hemolysis at 1 h, 4 µM ([4]; 4 µM): 2.01 ± 0.02%
- hemolysis at 1 h, 8 µM ([4]; 8 µM): 2.09 ± 0.15%
- hemolysis at 1 h, 16 µM ([4]; 16 µM): 20.8 ± 0.5%
- hemolysis at 1 h, 32 µM ([4]; 32 µM): 57.8 ± 6.7%
- hemolysis at 1 h, 64 µM ([4]; 64 µM): 75.7 ± 5.24%
- hemolysis at 1 h, 128 µM ([4]; 128 µM): 100%
- hemolysis at 1 h, 256 µM ([4]; 256 µM): 100%
- HC50 [5]: 27.93 ± 1.71^b µM
- IC50 [6]: 0.214 ± 0.06 µg/mL (≈ 0.232 µM)
- haemotoxicity [7]: 69.8%

Compound: NS(=O)(=O)c1ccc(NC(=O)Cc2ccccc2Br)c(F)c1 [Sulphonamide 3G]
- Dissolution in clove oil [8]: easily dissolved

Compound: NS(=O)(=O)c1ccc(NC(=O)Cc2ccc(Cl)cc2)c(F)c1 [Sulphonamide 3F]
- Dissolution in clove oil [8]: easily dissolved

Compound: NS(=O)(=O)c1ccc(CCNC(=O)Cc2ccccc2Br)cc1 [Sulphonamide 3W]
- Dissolution in clove oil [8]: easily dissolved

Next, values leading:

- Dissolution in clove oil [8]: easily dissolved
Compound: COc1ccc(CC(=O)Nc2nnc(S(N)(=O)=O)s2)cc1 [Sulphonamide 5D]

- Dissolution in clove oil [8]: easily dissolved
Compound: NS(=O)(=O)c1nnc(NC(=O)Cc2ccccc2Br)s1 [Sulphonamide 5C]

- Dissolution in clove oil [8]: easily dissolved
Compound: NS(=O)(=O)c1nnc(NC(=O)Cc2ccc(Cl)cc2)s1 [Sulphonamide 5B]
